Measurements taken from patent US11427604B2 (Mindset Pharma Inc., priority 2020, dated 2022).
Where two headings read alike, the source gives them in different places.

Assay: In vivo pharmacokinetics in male Sprague-Dawley rats
Parameters: species or system rat
Details: for AUC(0-t): read-out: AUC0-tlast; for MRT inf: read-out: MRT0-inf; for half-life: read-out: Apparent t1/2 (converted)
Procedure: Male C57BL/6 mice (25-30 g) and male Sprague-Dawley rats (250-325 g) from Charles River Labs were acclimatized for a minimum of 5 days prior to dosing. Body weights were recorded on the day of dosing.
Animals dosed p.o. were deprived of food overnight and fed ˜2 h following dosing.
Formulations were administered intravenously (i.v.) via the tail vein or orally (p.o.) by gavage with disposable feeding needles.
Serial blood samples were collected via tail snip. Terminal blood samples were collected under isoflurane anesthesia by cardiac puncture.
All blood samples were transferred into K2EDTA tubes on wet ice and centrifuged within 5 min (3200×g for 5 min at 4° C.) to obtain plasma. Plasma was stored at −80° C. until analysis.
Mouse or rat plasma, as applicable.
AB Sciex QTRAP 4000 or 6500 MS/MS system equipped with an LC system with a binary pump, a solvent degasser, a thermostated column compartment and a multiplate autosampler. i. Analysis software: Phoenix® WinNonlin® 8.2 (Pharsight, Certara, Mountainview, Calif.) ii. Analysis methods: non-compartmental analysis, linear up/log down trapezoidal rule iii. PK parameters: C0, t1/2, AUC0-tlast, AUC0-∞, CL, VSS, MRT, tmax(po), Cmax(po), F, as appropriate

[1] = p.o. 3.0 mg/kg per title (dose row prints 10)
[2] = rat, plasma, iv, i.v. 0.3 mg/kg
[3] = rat, plasma, po, p.o. 3.0 mg/kg per title (dose row prints 10)
[4] = rat, plasma, sc, s.c. 0.3 mg/kg

[2H]C([2H])([2H])N(C([2H])([2H])[2H])C([2H])([2H])C([2H])([2H])c1c[nH]c2cccc(O)c12 [Compound I-45, 3-(2-(bis(methyl-d3)amino)ethyl-1,1,2,2-d4)-1H-indol-4-ol]
AUC0-inf/Dose (i.v. 0.3 mg/kg): 181 ± 30.8 kg·ng·h/mL/mg
AUC(0-inf) (i.v. 0.3 mg/kg): 117 ± 11.5 ng·h/mL
Apparent t1/2 (i.v. 0.3 mg/kg): 34.6 ± 3.17 h
AUC0-inf/Dose [1]: 181 ± 14.6 kg·ng·h/mL/mg
Cmax/Dose [1]: 79.2 ± 24.4 kg·ng/mL/mg
clearance [2]: 143 mL/min/kg
AUC(0-t) [2]: 35.2 ± 3.45 ng·h/mL
MRT inf [2]: 89.4 ± 32.2 min
Cmax [3]: 238 ± 73.3 ng/mL
Tmax [3]: 20 ± 8.64 min
bioavailability [3]: 155 ± 12.4%
AUC(0-inf) (rat, plasma, po, p.o. 3.0 mg/kg per title (dose row prints 10), read-out: AUC0-inf): 543 ± 43.7 ng·h/mL
AUC(0-t) [3]: 534 ± 38.7 ng·h/mL
half-life [3]: 157 ± 47.7 min
MRT inf [3]: 166 ± 29.2 min
Cmax [4]: 30.2 ± 12.2 ng/mL
Tmax [4]: 16.7 ± 12.6 min
bioavailability [4]: 125 ± 30.4%
AUC(0-inf) (rat, plasma, sc, s.c. 0.3 mg/kg, read-out: AUC0-inf): 35.9 ± 8.71 ng·h/mL
AUC(0-t) [4]: 32 ± 9.2 ng·h/mL
half-life [4]: 38.8 ± 12.7 min
MRT inf [4]: 59.5 ± 13.7 min
AUC0-inf/Dose (s.c. 0.3 mg/kg): 120 ± 29.0 kg·ng·h/mL/mg
Cmax/Dose (s.c. 0.3 mg/kg): 101 ± 40.7 kg·ng/mL/mg
